The text below walks through data of ChEMBL document CHEMBL2406912, “In vivo antimalarial activity of novel 2-hydroxy-3-anilino-1,4-naphthoquinones obtained by epoxide ring-opening reaction” (2013).

As a reminder, the inhibition in vivo is the percentage by which the read-out fell short of the control.

Common to all, as to format: functional
Test [1] has as its system Plasmodium berghei. Put plainly: Antimalarial activity against Plasmodium berghei NK65 infected in Swiss albino mouse assessed as inhibition of parasitemia at 100 mg/kg, po qd for 4 days measured on day 5 of after infection relative to control.
In test [2] the test system is Plasmodium berghei. Put plainly: Antimalarial activity against Plasmodium berghei NK65 infected in Swiss albino mouse assessed as increase of survival days of host at 100 mg/kg, po qd for 4 days (reference value: 20 +/- 2.7 days).
Test [3] deals with Plasmodium berghei. As to the kind of experiment: Antimalarial activity against Plasmodium berghei NK65 infected in Swiss albino mouse assessed as inhibition of parasitemia at 100 mg/kg, po qd for 4 days measured on day 7 of after infection relative to control.
Test [4] has as its system Plasmodium berghei. As to the kind of experiment: Antimalarial activity against Plasmodium berghei NK65 infected in Swiss albino mouse assessed as inhibition of parasitemia at 10 mg/kg, po qd for 4 days measured on day 5 to 7 of after infection relative to control.
Test [5] concerns Plasmodium berghei. As to the kind of experiment: Antimalarial activity against Plasmodium berghei NK65 infected in Swiss albino mouse assessed as increase of survival days of host at 10 mg/kg, po qd for 4 days (reference value: 20 +/- 2.7 days).

`O=C1C(O)=C(Nc2ccccc2)C(=O)c2ccccc21`: the figures for the inhibition in vivo at 100 mg/kg in the test on Plasmodium berghei [1] and with Plasmodium berghei [3] were 53.3% and 18.5%, respectively. Also, the MSD in the test with Plasmodium berghei [2] turned out to be 32.5 days.
The corresponding values for `COc1ccc(NC2=C(O)C(=O)c3ccccc3C2=O)cc1` are 66.6%, 25.9% and 26 days.
On to `Cc1cccc(C)c1NC1=C(O)C(=O)c2ccccc2C1=O`, for which the inhibition in vivo at 100 mg/kg in the test with Plasmodium berghei [1] and with Plasmodium berghei [3] was 0% each time. In the test on Plasmodium berghei [2], the MSD is 26.7 days.
Turning to `CCN(CC)CCCC(C)Nc1ccnc2cc(Cl)ccc12` (stereo unspecified) [CHLOROQUINE], the inhibition in vivo at 10 mg/kg with Plasmodium berghei [4] was 98%. Also, the MSD in the test with Plasmodium berghei [5] is more than 60 days.
